Laboratory results as given in patent US20120195911A1, “Method of treatment of cancer patients” (priority 2011, published 2012).

Assays:
[1] = test system: adenocarcinomas with various localizations; assay: Comparative study, all cancer patients of the experimental group together; type: in vivo, human; conditions: for long-term remission of the illness: fewer than 3 courses of seven days
Method: All the patients belonged to the second clinical group with stage 3 illness. In the capacity of a control group (Control), the following were used: 10 cervical cancer patients, 12 stomach cancer patients, and 10 mammary gland cancer patients from clinical group 2 with stage 3 illnesses. In the control group the patients were treated without the use of Valacyclovir and Acyclovir. As may be seen in the table, the remission periods due to the use of Valacyclovir (Acyclovir) before standard methods of treatment or in combination with chemotherapy doubled for mammary gland cancer and quintupled for stomach cancer. In the majority of the patients (more than 72%), metastasis was not seen for the entire period of observation (3 years). […] The use of the antiviral drug is not useful for a longer period, as the remission period begins for the patient and the drug is ineffective.

[2] = test system: EBV-associated nasopharyngeal carcinomas; conditions: nasopharyngeal carcinomas in athymus mice; cited from earlier work
[3] = test system: neuroblastoma cells infected by HCMV; conditions: long-term cultured HCMV-infected neuroblastoma cells resistant to cysplatin and etoposide; virus reproduction blocked; cited from earlier work
Stomach Cancer = assay: Comparative study of treatment with Valacyclovir before standard treatment, stomach cancer patients; type: in vivo, human; conditions: Valacyclovir (Acyclovir) before standard treatment or with chemotherapy
Method: (§1) All the patients belonged to the second clinical group with stage 3 illness. In the capacity of a control group (Control), the following were used: 10 cervical cancer patients, 12 stomach cancer patients, and 10 mammary gland cancer patients from clinical group 2 with stage 3 illnesses. In the control group the patients were treated without the use of Valacyclovir and Acyclovir. As may be seen in the table, the remission periods due to the use of Valacyclovir (Acyclovir) before standard methods of treatment or in combination with chemotherapy doubled for mammary gland cancer and quintupled for stomach cancer. In the majority of the patients (more than 72%), metastasis was not seen for the entire period of observation (3 years).

cytomegalovirus (CMV) = assay: CMV antigens in patient's lymphocytes (fluorescing antibody method / indirect immunofluorescence reaction); type: in vivo, human
Method: (§2) […] Before treatment with Acyclovir, the antigen to cytomegalovirus (CMV) was found in 85% of the patient's lymphocytes through the fluorescing antibody method (FAM) and therapy was administered with the use of Valacyclovir. 1 g of medication was given 3 times a day for 7 days in a row in three courses in intervals of seven days each. Then the patient underwent a radical mastectomy. Postoperative chemotherapy was not used. […] CMV antigens were not found in the lymphocytes.
(§3) […] CMV antigens were found using the FAM in 90% of the lymphocytes before treatment with Valacyclovir. The patient then underwent Valacyclovir therapy. 2 g of medication was administered 4 times a day for 7 days in a row in three courses in intervals of seven days each. Then a subtotal resection was performed on the patient's stomach. Postoperative chemotherapy was not used. […] Laboratory study of the patient's lymphocytes every year found CMV antigens in 10-15% of the cells. At the end of the first and second year, the patient received another course of Valacyclovir.
(§4) […] CMV was found with the FEM in 80% of lymphocytes before treatment with Valacyclovir. The patient then underwent Valacyclovir therapy. 2 g of medication was administered 4 times a day for 7 days in a row in three courses in intervals of seven days each. Then the patient underwent a standard schedule of radiological treatment. Chemotherapy was not used. […] Laboratory study of the patient's lymphocytes every year found CMV antigens, but only in 20-30% of the cells. The patient underwent two more courses of treatment with Valacyclovir according to the schedule above once per year.
(§5) […] Valacyclovir was administered as treatment. CMV antigens were found in 95% of the patient's lymphocytes before treatment with Valacyclovir. 2 g of medication was administered orally 4 times a day for 7 days in a row in three courses in intervals of seven days each in parallel with CVPM chemotherapy. Other treatment methods were not used. […] Laboratory study of the patient's lymphocytes every year found CMV antigens in 10-15% of the cells. The patient underwent two more courses of treatment with Valacyclovir in combination with chemotherapy once per year.
(§6) EBV antigens were found 80% of the lymphocytes and CMV was found in 90% of the lymphocytes using the FAM in before treatment with Valacyclovir. The patient then underwent combination therapy with antiviral drugs: immunoglobulin to treat the EBV at a dosage of 13 ml of a 10% solution immediately (7 ml per injection) intravenously once a week three times; immunoglobulin to treat the CMV at a dosage of 13 ml of a 10% solution immediately (7 ml per injection) intramuscularly once a week three times; two 1 g tablets of Valacyclovir 3 times per day in 3 courses of 7 days each; Laferobion 3 million IU once per day daily for seven days in a row. Then a subtotal resection was performed on the patient's stomach. Postoperative chemotherapy was not used. […] Laboratory study of the patient's lymphocytes every year found CMV and EBV antigens in 10-15% of the cells.

EBV = EBV antigens in patient's lymphocytes (fluorescing antibody method); type: in vivo, human; conditions: Patient (stomach cancer), combination with immunoglobulins and Laferobion; 80% before treatment
Method: as §6

T3N1M0 stomach cancer = assay: Case reports: preoperative Valacyclovir in stomach cancer; type: in vivo, human; conditions: then subtotal resection
Method: as §3
EBV antigens were found 80% of the lymphocytes and CMV was found in 90% of the lymphocytes using the FAM in before treatment with Valacyclovir. The patient then underwent combination therapy with antiviral drugs: immunoglobulin to treat the EBV at a dosage of 13 ml of a 10% solution immediately (7 ml per injection) intravenously once a week three times; immunoglobulin to treat the CMV at a dosage of 13 ml of a 10% solution immediately (7 ml per injection) intramuscularly once a week three times; two 1 g tablets of Valacyclovir 3 times per day in 3 courses of 7 days each; Laferobion 3 million IU once per day daily for seven days in a row. Then a subtotal resection was performed on the patient's stomach. Postoperative chemotherapy was not used. […]

T4N1M0 prostate cancer = assay: Case report: Valacyclovir with chemotherapy in prostate cancer; type: in vivo, human; conditions: Patient D., 2 g orally 4 times a day, 7 days, three courses, in parallel with CVPM chemotherapy; three-year period
Method: as §5

T4N1M0 cervical cancer = assay: Case report: Valacyclovir before radiation therapy for cervical cancer; type: in vivo, human; conditions: Patient S.
Method: as §4

[4] = test system: T2N1M0 mammary gland cancer; assay: Case report: preoperational Valacyclovir in mammary gland cancer; type: in vivo, human; conditions: Patient L., 1 g 3 times a day, 7 days, three courses, then radical mastectomy; three-year period
Method: as §2

Mammary Gland Cancer = assay: Comparative study of treatment with Valacyclovir before standard treatment, mammary gland cancer patients; type: in vivo, human; conditions: Valacyclovir (Acyclovir) before standard treatment or with chemotherapy
Method: as §1

Nc1nc2c(ncn2COCCO)c(=O)[nH]1 [Acyclovir]
long-term remission of the illness ([1]; less than 0.5 g 2 times a day in injected form): does not provide long-term remission

Nc1ccn(C[C@@H](CO)OCP(=O)(O)O)c(=O)n1 [Cidofovir, (S)-1-(3-hydroxy-2-phpsphonyl-methoxypropyl) cytosine]
apoptosis in EBV-transformed epithelial cells [2]: causes a quick induction of apoptosis

Nc1nc(O)c2ncn(COC(CO)CO)c2n1 [Ganciclovir]
sensitivity to the action of antitumor drugs [3]: fully restored

CC(C)[C@H](N)C(=O)OCCOCn1cnc2c(=O)[nH]c(N)nc21 [Valacyclovir]
patients in whom metastasis was not seen for the entire period of observation ([1]; experimental group, observation 3 years): more than 72%
long-term remission of the illness ([1]; less than 1 g 3 times a day perorally): does not provide long-term remission
change of remission period versus control (Stomach Cancer): quintupled
CMV antigens in lymphocytes after treatment (cytomegalovirus (CMV); Patient (stomach cancer), combination with immunoglobulins and Laferobion, 90% before treatment): 10-15%
CMV antigens in lymphocytes after treatment (cytomegalovirus (CMV); Patient B. (stomach cancer), yearly study, 90% of lymphocytes before treatment): 10-15%
CMV antigens in lymphocytes after treatment (cytomegalovirus (CMV); Patient D. (prostate cancer), yearly study, 95% of lymphocytes before treatment): 10-15%
CMV antigens in lymphocytes after treatment (cytomegalovirus (CMV); Patient L., yearly checkup by IIR, 85% of lymphocytes before treatment): not found
CMV antigens in lymphocytes after treatment (cytomegalovirus (CMV); Patient S. (cervical cancer), yearly study, 80% of lymphocytes before treatment): 20-30%
EBV antigens in lymphocytes after treatment (EBV): 10-15%
relapses (T3N1M0 stomach cancer; Patient B., 2 g 4 times a day, 7 days, three courses, three-year period): No relapses were seen
relapses (T3N1M0 stomach cancer; Patient, Valacyclovir combined with EBV and CMV immunoglobulins and Laferobion, four-year period): No relapses were seen
relapses (T4N1M0 prostate cancer): No relapses were seen
relapses (T4N1M0 cervical cancer; 2 g 4 times a day, 7 days, three courses, then radiological treatment, three-year period): No relapses were seen
metastasis (T4N1M0 cervical cancer; during the observation time): no metastasis
relapses [4]: No relapses were seen
change of remission period versus control (Mammary Gland Cancer): doubled
